Experimental data as given in article PMC13335744, “Functional Analysis of Ligand‐Gated Chloride Channels in a Cnidarian Sheds Light on the Evolution of Inhibitory Signaling” (Advanced Science, 2026).

Tests used:
[1] = target: nvpLGIC-1 (Nematostella vectensis pentameric ligand-gated ion channel subunit 1), C-terminal His6 (Nematostella vectensis); assay: native gel or EMSA; blue native PAGE of C-terminally His-tagged receptors expressed in Xenopus laevis oocytes, solubilised with digitonin and purified under non-denaturing conditions on Ni-NTA; run native and partially denatured (SDS 1 h at 37°C; methods say LiDS) to count lower-order intermediates; surface pool detected by IR800 fluorescence, total pool by 35S phosphorimaging
[2] = tested on: nvpLGIC‐1 – nvpLGIC‐7; assay: Ligand screen by two-electrode voltage clamp, nvpLGIC‐1 – nvpLGIC‐7 expressed individually in Xenopus oocytes; assay type: cell-based, Nematostella vectensis; conditions: for evoked currents: 1 µM–1 mM
Protocol: Approximately 2–5 ng of cRNA of nvpLGICs were injected into Xenopus laevis oocytes of stages V and VI. Injected oocytes were incubated at 19 °C in oocyte Ringer's solution (OR‐2) containing (in mM): 82.5 NaCl, 2.5 KCl, 1.0 Na2HPO4,1.0 MgCl2, 1.0 CaCl2, 5.0 HEPES, 0.5 g l^−1 PVP, 1000 U l^−1 penicillin, and 10 mg l^−1 streptomycin. pH was adjusted to 7.3 using NaOH.
(§1) For electrophysiology, whole‐oocyte currents were measured two days after injection using a two‐electrode voltage clamp (TEVC) set‐up with a TurboTec 03X amplifier (npi electronic GmbH, Tamm, Germany) and a pump‐driven solution exchange system combined with the oocyte testing carousel (OTC), controlled by the interface OTC‐20. For nvGluCl‐1, the His‐tagged version was functionally characterized. Standard bath solution contained (in mM): 140 NaCl, 10 HEPES, 1.8 CaCl2, and 1.0 MgCl2, pH was adjusted to 7.4 using NaOH. Solution exchange was controlled using the CellWorks 5.1.1 software (npi electronic). Data were sampled at 0.1–1 kHz and filtered at 20 Hz. Holding potential was −70 mV.

[3] = tested on: nematocytes; parameters: method as in PMID 32452384; conditions: cited from earlier work
[4] = tested on: nvGluCl‐1 (nvpLGIC‐1); assay: Two-electrode voltage clamp of Xenopus oocytes expressing nvGluCl‐1 (nvpLGIC‐1); assay type: cell-based, Nematostella vectensis
Protocol: (§2) Approximately 2–5 ng of cRNA of nvpLGICs were injected into Xenopus laevis oocytes of stages V and VI.
as §1, with “For nvGluCl‐1, the His‐tagged version was functionally characterized.” left out
(§3) Electrophysiological data were analyzed offline, and current amplitudes were assessed using CellWorks Reader 6.2.2 (npi electronic GmbH, Tamm, Germany). Concentration‐response relationships were normalized to the currents obtained with a saturating concentration (I/Imax ). The mean of normalized amplitudes was plotted as a function of ligand concentrations.
(§4) Desensitization kinetics and recovery from desensitization were fitted to a mono‐exponential function: (2) y=yo+Ae^−x/τ where yo is the offset, A is the amplitude, and τ is the time constant.

[5] = tested on: nvGluCl‐2 (nvpLGIC‐2); assay: Two-electrode voltage clamp of Xenopus oocytes expressing nvGluCl‐2 (nvpLGIC‐2); assay type: cell-based, Nematostella vectensis
Protocol: as §2
as §1, with “For nvGluCl‐1, the His‐tagged version was functionally characterized.” left out
as §3, §4

[6] = tested on: nvGluCl‐3 (nvpLGIC‐6); assay: Two-electrode voltage clamp of Xenopus oocytes expressing nvGluCl‐3 (nvpLGIC‐6); assay type: cell-based, Nematostella vectensis
Protocol: as §2
as §1, with “For nvGluCl‐1, the His‐tagged version was functionally characterized.” left out
as §3, §4

[7] = tested on: nvGluCl‐2 K229 mutants; assay: Two-electrode voltage clamp of oocytes expressing nvGluCl‐2 with substitutions of K229 (K229T, K229R, K229M); assay type: cell-based, Nematostella vectensis
From the text: Full‐length DNA sequences of […] subunits were identified and cloned based on bulk and single cell transcriptomes of N. vectensis. nvpLGIC‐1 – nvpLGIC‐4 were cloned in oocyte expression vector pRSSP6009 [72]. nvpLGIC‐5 and […] DNA sequences were synthesized and cloned in the pCDNA3.1 (‐) vector (BioCat GmbH). They were then subcloned in the vector pRSSP6009 (nvpLGIC‐6) or pRSSP 6013 (nvpLGIC‐5). Site‐directed mutations were introduced in nvGluCl‐2 to create the mutants at position K229, using the Quick‐change mutagenesis method. nvpLGIC‐1 – nvpLGIC‐6 subunits were fused with His6‐tags at their C‐terminus using PCR. His6‐tags were incorporated just before the stop codon without changing any other amino acids. All final constructs were sequenced for confirmation. […]
For electrophysiology, whole‐oocyte currents were measured two days after injection using a two‐electrode voltage clamp (TEVC) set‐up with a TurboTec 03X amplifier (npi electronic GmbH, Tamm, Germany) and a pump‐driven solution exchange system combined with the oocyte testing carousel (OTC), controlled by the interface OTC‐20. […]

[8] = target: nvpLGIC-3 (Nematostella vectensis pentameric ligand-gated ion channel subunit 3), C-terminal His6 (Nematostella vectensis); assay: native gel or EMSA; blue native PAGE of C-terminally His-tagged receptors expressed in Xenopus laevis oocytes, solubilised with digitonin and purified under non-denaturing conditions on Ni-NTA; run native and partially denatured (SDS 1 h at 37°C; methods say LiDS) to count lower-order intermediates; surface pool detected by IR800 fluorescence, total pool by 35S phosphorimaging
[9] = target: nvpLGIC-5 (Nematostella vectensis pentameric ligand-gated ion channel subunit 5), C-terminal His6 (Nematostella vectensis); assay: as above
[10] = target: the molecule itself; assay: as above
[11] = also with a mix of nvpLGIC‐1 – nvpLGIC‐7, nvpLGIC‐7 not tested individually
[12] = at 500 µM glutamate, single exponential fit
[13] = read-out: EC50, half‐maximal activation, TEVC, holding potential −70 mV

**Q.** Which stoichiometry N [1] does the source give for “nvpLGIC-1 (Nematostella vectensis pentameric ligand-gated ion channel subunit 1), C-terminal His6 (receptor)” here?
**A.** 5

**Q.** For `NCCC(=O)O` [β‐alanine], which elicited currents [2, 11] is on record?
**A.** did not elicit currents

**Q.** Which elicited currents [2, 11] does the source give for `NC(=O)CC[C@H](N)C(=O)O` [glutamine] here?
**A.** did not elicit currents

**Q.** For `NCCc1c[nH]c2ccc(O)cc12` [serotonin], which elicited currents ([2]; 1 mM) is on record?
**A.** did not elicit currents

**Q.** Which results are given for `CC(=O)OCC[N+](C)(C)C` [acetylcholine]?
**A.** elicited currents ([2]; 1 mM): did not elicit currents; elicited currents [3]: elicits an inward Ca^2+ current

**Q.** For `N[C@@H](CCC(=O)O)C(=O)O` [glutamate], which evoked currents ([4]; 100 µM) is on record?
**A.** evoked large currents

**Q.** And the “time constant of desensitization, τdes” value [4, 12]?
**A.** 26 ± 3 ms

**Q.** And the EC50 ([4]; read-out: EC50, half‐maximal activation, TEVC, holding potential −70 mV, His‐tagged version)?
**A.** 16 µM

**Q.** What about the evoked currents ([5]; 100 µM) of the same molecule?
**A.** evoked large currents

**Q.** What about the “recovery from desensitization, τrecovery” value ([5]; 30 s desensitizing pulse of 100 µM glutamate) of the same molecule?
**A.** 31 s

**Q.** And the “time constant of desensitization, τdes” value [5, 12]?
**A.** 111 ± 47 ms

**Q.** What about the EC50 [5, 13] of the same molecule?
**A.** 102 µM

**Q.** And the evoked currents ([6]; 100 µM)?
**A.** evoked large currents

**Q.** What about the “time constant of desensitization, τdes” value [6, 12] of the same molecule?
**A.** 161 ± 93 ms

**Q.** What about the “recovery from desensitization, τrecovery” value ([6]; desensitization by 30 µM glutamate for 30 s) of the same molecule?
**A.** 38 s

**Q.** What about the EC50 [6, 13] of the same molecule?
**A.** 7 µM

**Q.** What about the “response to glutamate of K229T, K229R, K229M mutants” value ([7]; 10 mM glutamate) of the same molecule?
**A.** almost completely abolished the response

**Q.** What about the elicited currents [3] of the same molecule?
**A.** neither Glu nor GABA elicit currents

**Q.** With `N[C@H](CO)C(=O)O` [D‐serine] as the molecule, how does the elicited currents ([2]; 1 mM) read?
**A.** did not elicit currents

**Q.** Which IC50 ([5]; 100 µM glutamate, read-out: apparent IC50, inhibition of glutamate-evoked current) does the source give for picrotoxin [PTx] here?
**A.** ~10 µM

**Q.** For “nvpLGIC-3 (Nematostella vectensis pentameric ligand-gated ion channel subunit 3), C-terminal His6 (receptor)”, which stoichiometry N [8] is on record?
**A.** 5

**Q.** For “nvpLGIC-5 (Nematostella vectensis pentameric ligand-gated ion channel subunit 5), C-terminal His6 (receptor)”, which stoichiometry N [9] is on record?
**A.** 5

**Q.** For `N[C@@H](CC(=O)O)C(=O)O` [aspartate], which elicited currents [2, 11] is on record?
**A.** did not elicit currents

**Q.** With `NCC(=O)O` [glycine] as the molecule, how does the evoked currents [2] read?
**A.** neither GABA nor glycine (1 µM–1 mM) evoked currents

**Q.** With `NCCc1c[nH]cn1` [histamine] as the molecule, how does the elicited currents [2, 11] read?
**A.** did not elicit currents

**Q.** With `NCCCC(=O)O` [GABA, γ‐aminobutyric acid] as the molecule, how does the evoked currents [2] read?
**A.** neither GABA nor glycine (1 µM–1 mM) evoked currents

**Q.** What about the “activation of K229 mutant channels” value [7] of the same molecule?
**A.** still not activated

**Q.** What about the elicited currents [3] of the same molecule?
**A.** neither Glu nor GABA elicit currents

B1: human GABAA receptor β3 subunit (hGABRB3), His-tagged (receptor, UniProt P28472 26-473, looked up)
chain: QSVNDPGNMSFVKETVDKLLKGYDIRLRPDFGGPPVCVGMNIDIASIDMVSEVNMDYTLTMYFQQYWRDKRLAYSGIPLNLTLDNRVADQLWVPDTYFLNDKKSFVHGVTVKNRMIRLHPDGTVLYGLRITTTAACMMDLRRYPLDEQNCTLEIESYGYTTDDIEFYWRGGDKAVTGVERIELPQFSIVEHRLVSRNVVFATGAYPRLSLSFRLKRNIGYFILQTYMPSILITILSWVSFWINYDASAARVALGITTVLTMTTINTHLRETLPKIPYVKAIDMYLMGCFVFVFLALLEYAFVNYIFFGRGPQRQKKLAEKTAKAKNDRSKSESNRVDAHGNILLTSLEVHNEMNEVSGGIGDTRNSAISFDNSGIQYRKQSMPREGHGRFLGDRSLPHKKTHLRRRSSQLKIKIPDLTDVNAIDRWSRIVFPFTFSLFNLVYWLYYVN
modifications: metabolically labelled with [35S]methionine; surface pool labelled with the lysine-reactive dye IR800-NHS ester
notes: human GABAA receptor subunit β3 (GABRB3), full-length cDNA from the Harvard Plasmid Repository, subcloned into a Gateway-compatible pNKS2 vector; Positive control for homopentamer formation; also called human GABAA β3; human β3 receptor; source: Xenopus laevis oocytes, cRNA-injected; digitonin-solubilised, purified (Ni-NTA); not shown: His tag, C-terminal, kept
**Q.** With B1 as the molecule, how does the “stoichiometry N” value [10] read?
**A.** 5
